# In PubChem BioAssay AID1963960 (Molecular Pharmacology Branch, DTP, NCI, 2024):
# Tested on: MDA-MB-468 spheroids with HUVEC/MSC, viability
# Experiment: Anticancer human tumor MDA-MB-468 cell line growth inhibition [PI3K];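 note: spheroids exposed to agents for seven days before readout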;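 for viability, T/C: 100% = DMSO vehicle control viability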
# Settings: for IC50: curve of first compound; for viability, T/C: stronger effect = lower value
# Description: Combinatorial screen of targeted agents with the PI3K inhibitors inavolisib, alpelisib, duvelisib, and copanlisib in multi-cell type tumor spheroids
# A high-throughput screen of multi-cell type tumor spheroids was designed to identify active combinations of targeted small molecules and PI3K pathway inhibitors. Complex spheroids include a stromal component modeled by human endothelial cells (HUVEC) and fibroblasts modeled by human mesenchymal stem cells (MSCs). The concentration ranges selected for each drug and investigational agent were based upon clinically achievable concentrations if the clinical Cmax of the agent was known.
# Compounds. The drugs and investigational agents: inavolisib (NSC800729), alpelisib (NSC765974), duvelisib (NSC772469), copanlisib (NSC816437), ipatasertib (NSC767898), afuresertib (NSC778305), talazoparib (NSC767125), sapanisertib (NSC764658), selumetinib (NSC741078), tovorafenib (DAY101, NSC766906), vemurafenib (NSC761431), ravoxertinib (NSC781343), sotorasib (NSC818433), MRTX1133 (NSC 836407), abemaciclib (NSC 768073), palbociclib (NSC758247), venetoclax (NSC 766270), SY5609 (NSC837396), enzalutamide (NSC755605), and darolutamide (NSC825331), were obtained from the National Cancer Institute (NCI) Developmental Therapeutics Program Chemical Repository. The FDA-approved anticancer drug set is available from the NCI Developmental Therapeutics Program. […] The stock solutions were prepared in dimethyl sulfoxide (DMSO, Sigma-Aldrich, St. Louis, MO, cat. D2650) at 800-fold the tested concentration and stored at -70 degrees C prior to their use. All drugs and investigational agents were tested over a range starting from a high concentration at or near the clinical Cmax and decreasing in half-log increments. If the clinical Cmax for an agent had not been determined, the highest concentration tested was 10 microM.
# Cell Culture. All cells were maintained in an incubator at 37 degrees C and 5% CO2 with 95% humidity. The PDC lines were cultured according to standard operating procedures established by the NCI PDMR (https://pdmr.cancer.gov/sops/default.htm). All PDCs were thawed and cultured in Matrigel-coated flasks prepared with a working solution of 1X Ham's F-12 nutrient mix, without supplementation (Invitrogen, Waltham, MA, cat. 11765054), 100 U/mL penicillin-streptomycin (Invitrogen, cat. 15140122), and 2.5% Matrigel (Corning Inc., Corning, NY, cat. 354248) for the first three passages. The 354836-022-R-J1-PDC, 475296-252-R-J1-PDC, and 997726-040-R-J2-PDC lines were cultured in 6A media, which includes advanced DMEM/F-12 (Thermo Fisher Scientific, cat. 12634028), 10 mM HEPES (Thermo Fisher Scientific, cat. 15630080), 1X GlutaMAX supplement (Thermo Fisher Scientific, cat. 35050061), 0.1 mg/mL primocin (InvivoGen, San Diego, CA, cat. ant-pm-2), 10% defined fetal bovine serum, heat inactivated (HyClone Laboratories Inc., Logan, UT, cat. SH30070.03HI), 50% L-WRN conditioned media (ATCC, cat. CRL-3276), 1.25 mM N-Acetyl-L-cysteine (Sigma-Aldrich, cat. A9165), 10 mM nicotinamide (Sigma-Aldrich, cat. N0636), 1X B-27 supplement (Thermo Fisher Scientific, cat. 17504044), 1X N-2 supplement (Thermo Fisher Scientific, cat. 17502048), and 10 microM Y-27632 dihydrochloride (Tocris Bioscience, Bristol, United Kingdom, cat. 1254). The 624824-186-R-J2-PDC line was cultured in 6C/Colon 1B media, which includes all 6A media components plus 50 ng/mL human EGF recombinant protein (Thermo Fisher Scientific, cat. PHG0311). […]
smiles,measurement,setting,value
CC(C)n1nc(-c2ccc3oc(N)nc3c2)c2c(N)ncnc21 + CC(Nc1ncnc2nc[nH]c12)c1cc2cccc(Cl)c2c(=O)n1-c1ccccc1,IC50,second compound 0.0316 µM,41.9 nM
same,IC50,second compound 0.1 µM,34.5 nM
same,IC50,second compound 0.316 µM,37.9 nM
same,IC50,second compound 1 µM,24 nM
same,IC50,second compound 3.16 µM,11.3 nM
same,IC50,second compound 10 µM,< 0.316 nM
same,"viability, T/C","second compound 0.0316 µM, first compound 0.000316 µM",81.5%
same,"viability, T/C","second compound 0.0316 µM, first compound 0.001 µM",81.4%
same,"viability, T/C","second compound 0.0316 µM, first compound 0.00316 µM",96.1%
same,"viability, T/C","second compound 0.0316 µM, first compound 0.01 µM",82.2%
same,"viability, T/C","second compound 0.0316 µM, first compound 0.0316 µM",60%
same,"viability, T/C","second compound 0.0316 µM, first compound 0.1 µM",19.5%
same,"viability, T/C","second compound 0.1 µM, first compound 0.000316 µM",77.6%
same,"viability, T/C","second compound 0.1 µM, first compound 0.001 µM",91.5%
same,"viability, T/C","second compound 0.1 µM, first compound 0.00316 µM",77.9%
same,"viability, T/C","second compound 0.1 µM, first compound 0.01 µM",66%
same,"viability, T/C","second compound 0.1 µM, first compound 0.0316 µM",54.4%
same,"viability, T/C","second compound 0.1 µM, first compound 0.1 µM",19.8%
same,"viability, T/C","second compound 0.316 µM, first compound 0.000316 µM",91.6%
same,"viability, T/C","second compound 0.316 µM, first compound 0.001 µM",59.7%
same,"viability, T/C","second compound 0.316 µM, first compound 0.00316 µM",77.4%
same,"viability, T/C","second compound 0.316 µM, first compound 0.01 µM",73.8%
same,"viability, T/C","second compound 0.316 µM, first compound 0.0316 µM",55.2%
same,"viability, T/C","second compound 0.316 µM, first compound 0.1 µM",17.4%
same,"viability, T/C","second compound 1 µM, first compound 0.000316 µM",69.3%
same,"viability, T/C","second compound 1 µM, first compound 0.001 µM",68.4%
same,"viability, T/C","second compound 1 µM, first compound 0.00316 µM",64.1%
same,"viability, T/C","second compound 1 µM, first compound 0.01 µM",57%
same,"viability, T/C","second compound 1 µM, first compound 0.0316 µM",49.6%
same,"viability, T/C","second compound 1 µM, first compound 0.1 µM",15.8%
same,"viability, T/C","second compound 3.16 µM, first compound 0.000316 µM",50.2%
same,"viability, T/C","second compound 3.16 µM, first compound 0.001 µM",54.8%
same,"viability, T/C","second compound 3.16 µM, first compound 0.00316 µM",57.4%
same,"viability, T/C","second compound 3.16 µM, first compound 0.01 µM",50.9%
same,"viability, T/C","second compound 3.16 µM, first compound 0.0316 µM",36.2%
same,"viability, T/C","second compound 3.16 µM, first compound 0.1 µM",13.2%
same,"viability, T/C","second compound 10 µM, first compound 0.000316 µM",41.5%
same,"viability, T/C","second compound 10 µM, first compound 0.001 µM",39.7%
same,"viability, T/C","second compound 10 µM, first compound 0.00316 µM",38.8%
same,"viability, T/C","second compound 10 µM, first compound 0.01 µM",40%
same,"viability, T/C","second compound 10 µM, first compound 0.0316 µM",26.4%
same,"viability, T/C","second compound 10 µM, first compound 0.1 µM",9.66%
Cn1cnc2c(F)c(Nc3ccc(Br)cc3Cl)c(C(=O)NOCCO)cc21 + CC(Nc1ccc2c(c1)OCCn1cc(N3C(=O)OCC3C(F)F)nc1-2)C(N)=O,IC50,second compound 0.00316 µM,> 3000 nM
same,IC50,second compound 0.01 µM,> 3000 nM
same,IC50,second compound 0.0316 µM,> 3000 nM
same,IC50,second compound 0.1 µM,> 3000 nM
same,IC50,second compound 0.316 µM,> 3000 nM
same,IC50,second compound 1 µM,1520 nM
same,"viability, T/C","second compound 0.00316 µM, first compound 0.00949 µM",83.2%
same,"viability, T/C","second compound 0.00316 µM, first compound 0.03 µM",78.1%
same,"viability, T/C","second compound 0.00316 µM, first compound 0.0949 µM",81.8%
same,"viability, T/C","second compound 0.00316 µM, first compound 0.3 µM",92.6%
same,"viability, T/C","second compound 0.00316 µM, first compound 0.949 µM",87.3%
same,"viability, T/C","second compound 0.00316 µM, first compound 3 µM",56.7%
same,"viability, T/C","second compound 0.01 µM, first compound 0.00949 µM",80%
same,"viability, T/C","second compound 0.01 µM, first compound 0.03 µM",88.9%
same,"viability, T/C","second compound 0.01 µM, first compound 0.0949 µM",79.9%
same,"viability, T/C","second compound 0.01 µM, first compound 0.3 µM",90.4%
same,"viability, T/C","second compound 0.01 µM, first compound 0.949 µM",73.9%
same,"viability, T/C","second compound 0.01 µM, first compound 3 µM",61.9%
same,"viability, T/C","second compound 0.0316 µM, first compound 0.00949 µM",103%
same,"viability, T/C","second compound 0.0316 µM, first compound 0.03 µM",86.4%
same,"viability, T/C","second compound 0.0316 µM, first compound 0.0949 µM",86.3%
same,"viability, T/C","second compound 0.0316 µM, first compound 0.3 µM",83%
same,"viability, T/C","second compound 0.0316 µM, first compound 0.949 µM",63.9%
same,"viability, T/C","second compound 0.0316 µM, first compound 3 µM",58.6%
same,"viability, T/C","second compound 0.1 µM, first compound 0.00949 µM",91.3%
same,"viability, T/C","second compound 0.1 µM, first compound 0.03 µM",73.5%
same,"viability, T/C","second compound 0.1 µM, first compound 0.0949 µM",70.5%
same,"viability, T/C","second compound 0.1 µM, first compound 0.3 µM",77.5%
same,"viability, T/C","second compound 0.1 µM, first compound 0.949 µM",66.7%
same,"viability, T/C","second compound 0.1 µM, first compound 3 µM",48.9%
same,"viability, T/C","second compound 0.316 µM, first compound 0.00949 µM",81.3%
same,"viability, T/C","second compound 0.316 µM, first compound 0.03 µM",78.6%
same,"viability, T/C","second compound 0.316 µM, first compound 0.0949 µM",64.4%
same,"viability, T/C","second compound 0.316 µM, first compound 0.3 µM",67%
same,"viability, T/C","second compound 0.316 µM, first compound 0.949 µM",64.1%
same,"viability, T/C","second compound 0.316 µM, first compound 3 µM",48.9%
same,"viability, T/C","second compound 1 µM, first compound 0.00949 µM",79.4%
same,"viability, T/C","second compound 1 µM, first compound 0.03 µM",63.7%
same,"viability, T/C","second compound 1 µM, first compound 0.0949 µM",77%
same,"viability, T/C","second compound 1 µM, first compound 0.3 µM",69.7%
same,"viability, T/C","second compound 1 µM, first compound 0.949 µM",55.1%
same,"viability, T/C","second compound 1 µM, first compound 3 µM",39%
